Test results taken from patent US11970471B1, “3-(4-chlorophenyl)-5-{[5-methyl-2-(propan-2-yl)phenoxy]methyl }- 1,2,4-oxadiazole as an antitumor and antimicrobial compound” (KING FAISAL UNIVERSITY, priority 2023, dated 2024).

Key:
[1] = test system: human osteosarcoma cells (MG-63); test: Cytotoxicity by SRB assay, MG-63 cells; type: cell-based; details: 0.01 μM to 100 μM for 72 h
Experimental: (§1) Human prostate cancer cells (PC3) and human osteosarcoma cells (MG-63) were obtained from Nawah Scientific Inc. (Mokatam, Cairo, Egypt) and cultured in DMEM (Dulbecco's modified eagle's medium), Gibco, USA, supplemented with fetal bovine serum (FBS) at a concentration of 10% and 100 U/mL of penicillin and streptomycin (PS). The cells were incubated at 37° C. in a humidified environment that contained 5% CO2. Cells were seeded in 96-well plates as aliquots of 100 μL cell suspension and incubated in a complete media for 24 h. afterward, cells were treated with 3-(4-chlorophenyl)-5-{[5-methyl-2-(propan-2-yl)phenoxy]methyl}-1,2,4-oxadiazole at diverse concentrations ranging from 0.01 μM to 100 μM for 72 h. Then, cells were fixed at 4° C. for one hour with 150 μL of 10% trichloroacetic acid (TCA). After washing the cells five times with distilled water, 70 μL of sulforhodamine (SRB) solution (0.4% w/v) was added and incubated for 10 min at room temperature in a dark place. […] Then, 150 μL of Tris pH 10.5 (10 mM) was added, and the absorbance was measured at 540 nm using a BMG LABTECH®-FLUOstar Omega microplate reader (Ortenberg, Germany). Half maximal inhibitory concentrations (IC50) values were calculated for each experiment using GraphPad Prism 6 software. […] The inhibition was calculated using the following equation: Inhibition %=100−Average Viability

[2] = test system: Human prostate cancer cells (PC3); test: Cytotoxicity by SRB assay, PC3 cells; type: cell-based; details: 0.01 μM to 100 μM for 72 h
Experimental: as §1

Cc1ccc(C(C)C)c(OCc2nc(-c3ccc(Cl)cc3)no2)c1 [3-(4-chlorophenyl)-5-{[5-methyl-2-(propan-2-yl)phenoxy]methyl}-1,2,4-oxadiazole]
antiproliferative activity [1]: excellent antiproliferative activities | melting point: 166 to 167 °C | antiproliferative activity [2]: excellent antiproliferative activities
